Source: patent publication US11542262B2, “Phosphatidylinositol 3-kinase inhibitors” (NANJING ZHENGXIANG PHARMACEUTICALS CO., LTD., priority 2019, dated 2023)

Experiments:
[1] = target: PI3Kγ (Homo sapiens, UniProt P48736); assay: ADP-Glo luminescent assay, enzymatic activity of PI3K gamma; assay type: biochemical; conditions: ATP 25 μM; read-out: PI3K gamma (nM) inhibitory activity (IC50)
Method: The compounds would be tested from 1 or 10 μM, 3-fold dilution for 10 doses, in duplicate.
Compound preparation: Dilute a compound to 100× of the final desired highest inhibitor concentration in reaction by 100% DMSO. Transfer 100 μl of this compound dilution to a well in a 96-well plate and serially dilute it with DMSO for a total of 10 concentrations.
Kinase reaction: Prepare a solution of PI3K in 1× kinase buffer at 2-fold the final concentration of each reagent in the assay. Control wells contain 1× kinase buffer without enzyme. Prepare substrate solution of PIP2 substrate and ATP in 1× kinase reaction buffer at 2-fold of the final concentration. Add concentration substrate solution to each well to the final concentration. Cover the assay plate, shake to mix, and incubate at room temperature for 1 hour. Add 5 μl of ADP-Glo reagent to each well to stop the reaction. […] Add 10 ul Kinase Detection Reagent to each well, shake 1 min, equilibrate for 30 min before reading on a luminescence plate reader.
Data Analysis: Convert RLU values to percent inhibition values as Percent inhibition=(max−sample RLU)/(max−min)*100. “min”—no enzyme control; “max”—DMSO control. Fit the data in XLFit excel add-in version 5.4.0.8 to obtain IC50 values. Y=Bottom+(Top−Bottom)/(1+(IC50/X)^HillSlope).

[2] = target: T1, PI3K gamma (Mus musculus, UniProt Q9JHG7); assay: Raw264.7 cell assay: phosphorylation of AKT in C5a stimulated RAW264.7 cells (AlphaLISA); assay type: cell-based; conditions: pAKT, read-out: PI3K gamma Raw264.7 cell (nM) cellular activity (IC50)
T1 construct: endogenous in cells; host or cells: RAW264.7
T1 sequence (Q9JHG7 whole entry): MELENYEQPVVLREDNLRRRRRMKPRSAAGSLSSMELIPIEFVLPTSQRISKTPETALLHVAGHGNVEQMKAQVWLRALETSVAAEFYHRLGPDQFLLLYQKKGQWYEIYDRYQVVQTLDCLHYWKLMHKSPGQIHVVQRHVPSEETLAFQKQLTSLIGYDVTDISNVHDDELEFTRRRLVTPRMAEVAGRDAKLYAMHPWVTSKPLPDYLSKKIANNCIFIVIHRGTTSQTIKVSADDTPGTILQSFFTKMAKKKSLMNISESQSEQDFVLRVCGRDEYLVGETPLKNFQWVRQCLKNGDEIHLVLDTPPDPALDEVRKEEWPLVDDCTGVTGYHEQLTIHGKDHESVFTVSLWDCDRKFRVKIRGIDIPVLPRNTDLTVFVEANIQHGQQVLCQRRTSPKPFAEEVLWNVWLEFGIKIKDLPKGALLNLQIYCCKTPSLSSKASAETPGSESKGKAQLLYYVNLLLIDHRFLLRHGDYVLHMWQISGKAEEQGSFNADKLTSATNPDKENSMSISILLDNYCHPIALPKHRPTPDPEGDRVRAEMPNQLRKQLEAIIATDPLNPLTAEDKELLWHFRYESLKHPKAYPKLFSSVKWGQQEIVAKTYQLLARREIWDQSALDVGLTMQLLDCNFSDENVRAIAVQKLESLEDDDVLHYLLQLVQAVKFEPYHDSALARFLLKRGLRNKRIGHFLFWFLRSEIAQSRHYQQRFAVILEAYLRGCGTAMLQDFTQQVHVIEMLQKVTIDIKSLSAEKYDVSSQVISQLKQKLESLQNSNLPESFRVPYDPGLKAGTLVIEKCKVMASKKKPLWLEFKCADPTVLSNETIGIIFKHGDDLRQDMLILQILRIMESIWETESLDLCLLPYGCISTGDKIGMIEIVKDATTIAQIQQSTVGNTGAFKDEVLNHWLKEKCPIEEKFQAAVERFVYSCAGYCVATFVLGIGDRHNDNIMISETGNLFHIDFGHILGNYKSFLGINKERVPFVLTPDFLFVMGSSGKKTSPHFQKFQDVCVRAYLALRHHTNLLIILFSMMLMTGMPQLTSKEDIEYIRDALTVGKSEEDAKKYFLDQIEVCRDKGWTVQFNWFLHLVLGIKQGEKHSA
T1 sequence (Q5SW28 whole entry partner): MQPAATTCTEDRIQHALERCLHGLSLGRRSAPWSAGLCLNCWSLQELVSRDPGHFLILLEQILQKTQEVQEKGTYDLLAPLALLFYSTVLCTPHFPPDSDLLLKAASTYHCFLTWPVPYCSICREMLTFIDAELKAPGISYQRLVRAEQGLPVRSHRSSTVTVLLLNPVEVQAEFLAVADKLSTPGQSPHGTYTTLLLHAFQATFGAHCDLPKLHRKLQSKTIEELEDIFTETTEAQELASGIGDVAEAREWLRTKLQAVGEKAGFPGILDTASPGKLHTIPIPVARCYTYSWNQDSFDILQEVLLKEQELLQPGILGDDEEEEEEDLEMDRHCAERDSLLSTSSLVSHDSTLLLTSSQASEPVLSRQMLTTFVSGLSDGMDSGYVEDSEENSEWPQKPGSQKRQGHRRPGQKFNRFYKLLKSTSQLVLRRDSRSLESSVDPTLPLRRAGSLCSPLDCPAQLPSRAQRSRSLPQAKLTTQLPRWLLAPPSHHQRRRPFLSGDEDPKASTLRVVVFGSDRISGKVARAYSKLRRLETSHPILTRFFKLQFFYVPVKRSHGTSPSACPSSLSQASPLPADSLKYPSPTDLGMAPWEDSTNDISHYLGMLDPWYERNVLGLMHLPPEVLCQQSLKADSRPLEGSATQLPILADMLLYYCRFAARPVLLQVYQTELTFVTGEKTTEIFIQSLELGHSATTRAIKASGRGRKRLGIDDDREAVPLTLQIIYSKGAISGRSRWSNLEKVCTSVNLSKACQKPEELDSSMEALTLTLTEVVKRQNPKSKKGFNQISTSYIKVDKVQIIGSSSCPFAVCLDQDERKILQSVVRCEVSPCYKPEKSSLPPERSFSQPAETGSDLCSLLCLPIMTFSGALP
Method: This study aims to determine the inhibitory effect of compounds on PI3K gamma and PI3K delta in corresponding cell based assays. PI3K gamma activity was reflected by phosphorylation of AKT in C5a stimulated RAW264.7 cells, and PI3K delta activity was reflected by phosphorylation of AKT in anti-IgM stimulated Raji cells. Phosphorylation of AKT in cells was determined using AlphaLISA technology from PerkinElmer.
Raw264.7 cell assay: Prepare Passage 15 Raw264.7 cell and add 6 μL of 30K cells per well in 384-well plate by multidrop. Centrifuge at 500 RPM for 30 s and incubate for 2 hours at 37° C., 5% CO2. Add 30 nL compound by echo and incubate for 30 min at 37° C., 5% CO2. […] Add 2 μL of 5× lysis buffer by multidrop, incubate for 10 min on a plate shaker. Add 5 μL acceptor mix provided in the kit, centrifuge at 1000 RPM for 1 min. Add 5 μL donor mix provided in the kit, centrifuge at 1000 RPM for 1 min and incubate in dark for 2 hours at 25° C. Read AlphaLISA signal on Envision.
Y=Bottom+(Top−Bottom)/(1+10^((Log IC50−X)*Hill Slope)) X: Log of cpd concentration Y: Inhibition

Sequence of PI3Kγ (P48736 whole entry, species assumed): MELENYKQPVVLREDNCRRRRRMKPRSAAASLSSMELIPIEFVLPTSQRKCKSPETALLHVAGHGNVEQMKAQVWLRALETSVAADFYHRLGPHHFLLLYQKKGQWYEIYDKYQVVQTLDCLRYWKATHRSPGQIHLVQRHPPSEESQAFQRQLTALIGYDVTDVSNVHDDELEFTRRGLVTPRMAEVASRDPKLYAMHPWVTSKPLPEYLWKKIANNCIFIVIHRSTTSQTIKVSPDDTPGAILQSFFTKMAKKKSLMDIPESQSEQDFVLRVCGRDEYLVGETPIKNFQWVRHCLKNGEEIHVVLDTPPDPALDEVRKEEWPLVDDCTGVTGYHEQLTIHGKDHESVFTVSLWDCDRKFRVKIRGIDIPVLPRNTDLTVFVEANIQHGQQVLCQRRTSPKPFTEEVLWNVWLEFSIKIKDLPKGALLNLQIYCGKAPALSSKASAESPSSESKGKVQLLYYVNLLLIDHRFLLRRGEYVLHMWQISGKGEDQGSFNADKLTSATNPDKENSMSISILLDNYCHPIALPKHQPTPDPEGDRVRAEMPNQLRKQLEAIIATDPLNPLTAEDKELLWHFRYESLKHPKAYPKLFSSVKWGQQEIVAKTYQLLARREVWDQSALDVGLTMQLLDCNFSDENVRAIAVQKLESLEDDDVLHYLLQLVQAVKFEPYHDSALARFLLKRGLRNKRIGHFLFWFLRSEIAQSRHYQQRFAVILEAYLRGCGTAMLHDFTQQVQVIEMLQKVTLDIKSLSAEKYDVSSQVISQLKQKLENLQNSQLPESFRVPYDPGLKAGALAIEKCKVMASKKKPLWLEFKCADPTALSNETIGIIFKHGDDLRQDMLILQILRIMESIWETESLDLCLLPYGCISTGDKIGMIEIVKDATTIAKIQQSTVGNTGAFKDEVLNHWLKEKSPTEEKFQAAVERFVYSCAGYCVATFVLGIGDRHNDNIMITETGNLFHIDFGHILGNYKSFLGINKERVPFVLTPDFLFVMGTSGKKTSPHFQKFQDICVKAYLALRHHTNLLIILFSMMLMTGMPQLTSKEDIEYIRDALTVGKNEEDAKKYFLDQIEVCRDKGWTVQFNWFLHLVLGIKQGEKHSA

| Compound | IC50 [1] [nM] | IC50 [2] [nM] |
| --- | --- | --- |
| CC[S@@+]([O-])c1cc(-c2sc(NC(C)=O)nc2C)cc2c1C(=O)N([C@@H](C)C1CC1)C2 (racemic) [Compound 13, N-(5-(2-((S)-1-cyclopropylethyl)-7-(ethylsulfinyl)-1-oxoisoindolin-5-yl)-4-methylthiazol-2-yl)acetamide] | 3.1 | 22 |
| CC(=O)Nc1nc(C)c(-c2cc3c(c([S+]([O-])C(C)C)c2)C(=O)N([C@@H](C)C2CC2)C3)s1 (mixture of isomers) [Compound 14, N-(5-(2-((S)-1-cyclopropylethyl)-7-(isopropylsulfinyl)-1-oxoisoindolin-5-yl)-4-methylthiazol-2-yl)acetamide] | 4.2 | 27 |
| CC(=O)Nc1nc(C)c(-c2cc3c(c([S+](C)[O-])c2)C(=O)N(C(C)(C)C)C3)s1 (racemic) [Compound 17, N-(5-(2-(tert-butyl)-7-(methylsulfinyl)-1-oxoisoindolin-5-yl)-4-methylthiazol-2-yl)acetamide] | 4.5 | 118 |
| CC(=O)Nc1nc(C(F)F)c(-c2cc3c(c([S@@+](C)[O-])c2)C(=O)N([C@@H](C)C2CC2)C3)s1 (racemic) [Compound 18, N-(5-(2-((S)-1-cyclopropylethyl)-7-(methylsulfinyl)-1-oxoisoindolin-5-yl)-4-(difluoromethyl)thiazol-2-yl)acetamide] | 16 | – |
| CC(=O)Nc1nc(C)c(-c2cc3c(c(N4CCOCC4)n2)C(=O)N(C(C)C(F)(F)F)C3)s1 (stereo in doubt) [Compound 37, (S)-N-(4-methyl-5-(4-morpholino-3-oxo-2-(1,1,1-trifluoropropan-2-yl)-2,3-dihydro-1H-pyrrolo[3,4-c]pyridin-6-yl)thiazol-2-yl)acetamide] | 9 | – |
| Cc1nc(NC(=O)C2CC2)sc1-c1cc2c(c(P(C)(C)=O)c1)C(=O)N([C@@H](C)C1CC1)C2 [Compound 3, (S)-N-(5-(2-(1-cyclopropylethyl)-7-(dimethylphosphoryl)-1-oxoisoindolin-5-yl)-4-methylthiazol-2-yl)cyclopropanecarboxamide] | 7.7 | – |
| Cc1nc(NC(=O)C(C)C)sc1-c1cc2c(c(P(C)(C)=O)c1)C(=O)N([C@@H](C)C1CC1)C2 [Compound 4, (S)-N-(5-(2-(1-cyclopropylethyl)-7-(dimethylphosphoryl)-1-oxoisoindolin-5-yl)-4-methylthiazol-2-yl)isobutyramide] | 4.5 | 1850 |
| CCP(=O)(CC)c1cc(-c2sc(NC(C)=O)nc2C)cc2c1C(=O)N([C@@H](C)C1CC1)C2 [Compound 5, (S)-N-(5-(2-(1-cyclopropylethyl)-7-(diethylphosphoryl)-1-oxoisoindolin-5-yl)-4-methylthiazol-2-yl)acetamide] | 5.9 | 307 |
| CC(=O)Nc1nc(C)c(-c2ccc3c(n2)CN([C@@H](C)C2CC2)C3=O)s1 [Compound 9, (S)-N-(5-(6-(1-cyclopropylethyl)-5-oxo-6,7-dihydro-5H-pyrrolo[3,4-b]pyridin-2-yl)-4-methylthiazol-2-yl)acetamide] | 22 | – |
| CC(=O)Nc1nc(C)c(-c2cc3c(c(N4CCCC4=O)n2)C(=O)N([C@@H](C)C2CC2)C3)s1 [Compound 25, (S)-N-(5-(2-(1-cyclopropylethyl)-3-oxo-4-(2-oxopyrrolidin-1-yl)-2,3-dihydro-M-pyrrolo[3,4-c]pyridin-6-yl)-4-methylthiazol-2-yl)acetamide] | 3.8 | 446 |
| CC(=O)Nc1nc(C)c(-c2cc3c(c(C)n2)C(=O)N([C@@H](C)C2CC2)C3)s1 [Compound 27, (S)-N-(5-(2-(1-cyclopropylethyl)-4-methyl-3-oxo-2,3-dihydro-1H-pyrrolo[3,4-c]pyridin-6-yl)-4-methylthiazol-2-yl)acetamide] | 29 | 29 |
| CC(=O)Nc1nc(C)c(-c2cc3c(c(NC(=O)N(C)C)n2)C(=O)N([C@@H](C)C2CC2)C3)s1 [Compound 28, (S)-N-(5-(2-(1-cyclopropylethyl)-4-(3,3-dimethylureido)-3-oxo-2,3-dihydro-1H-pyrrolo[3,4-c]pyridin-6-yl)-4-methylthiazol-2-yl)acetamide] | 1.5 | 65 |
| CC(=O)Nc1nc(C)c(-c2cc3c(c(C(=O)N(C)C)n2)C(=O)N([C@@H](C)C2CC2)C3)s1 [Compound 29, (S)-6-(2-acetamido-4-methylthiazol-5-yl)-2-(1-cyclopropylethyl)-N,N-dimethyl-3-oxo-2,3-dihydro-1H-pyrrolo[3,4-c]pyridine-4-carboxamide] | 2.5 | 3240 |
| CC(=O)Nc1nc(C)c(-c2cc3c(c(C(=O)O)n2)C(=O)N([C@@H](C)C2CC2)C3)s1 [Compound 30, (S)-6-(2-acetamido-4-methylthiazol-5-yl)-2-(1-cyclopropylethyl)-3-oxo-2,3-dihydro-1H-pyrrolo[3,4-c]pyridine-4-carboxylic acid] | 56 | – |
| CC(=O)Nc1nc(C)c(-c2cc3c(c(C(N)=O)n2)C(=O)N([C@@H](C)C2CC2)C3)s1 [Compound 31, (S)-6-(2-acetamido-4-methylthiazol-5-yl)-2-(1-cyclopropylethyl)-3-oxo-2,3-dihydro-1H-pyrrolo[3,4-c]pyridine-4-carboxamide] | 2.3 | – |
| CNC(=O)c1nc(-c2sc(NC(C)=O)nc2C)cc2c1C(=O)N([C@@H](C)C1CC1)C2 [Compound 32, (S)-6-(2-acetamido-4-methylthiazol-5-yl)-2-(1-cyclopropylethyl)-N-methyl-3-oxo-2,3-dihydro-1H-pyrrolo[3,4-c]pyridine-4-carboxamide] | 2.2 | 208 |
| CC(=O)Nc1nc(C)c(-c2cc3c(c(C(=O)N4CCOCC4)n2)C(=O)N([C@@H](C)C2CC2)C3)s1 [Compound 33, (S)-N-(5-(2-(1-cyclopropylethyl)-4-(morpholine-4-carbonyl)-3-oxo-2,3-dihydro-1H-pyrrolo[3,4-c]pyridin-6-yl)-4-methylthiazol-2-yl)acetamide] | 6.5 | – |
| CC(=O)Nc1nc(C)c(-c2cc3c(c(N4CCNCC4)n2)C(=O)N([C@@H](C)C2CC2)C3)s1 [Compound 39, (S)-N-(5-(2-(1-cyclopropylethyl)-3-oxo-4-(piperazin-1-yl)-2,3-dihydro-1H-pyrrolo[3,4-c]pyridin-6-yl)-4-methylthiazol-2-yl)acetamide] | 3.7 | 271 |
| [2H]C([2H])([2H])Oc1nc(-c2sc(NC(C)=O)nc2C)cc2c1C(=O)N([C@@H](C)C1CC1)C2 [Compound 43, (S)-N-(5-(2-(1-cyclopropylethyl)-4-(methoxy-d3)-3-oxo-2,3-dihydro-1H-pyrrolo[3,4-c]pyridin-6-yl)-4-methylthiazol-2-yl)acetamide] | 2.6 | – |
| CC(=O)Nc1nc(C)c(-c2cc3c(c(NC(=O)C4CC4C#N)n2)C(=O)N([C@@H](C)C2CC2)C3)s1 (stereo partly drawn) [Compound 45, N-(6-(2-acetamido-4-methylthiazol-5-yl)-2-((S)-1-cyclopropylethyl)-3-oxo-2,3-dihydro-1H-pyrrolo[3,4-c]pyridin-4-yl)-2-cyanocyclopropane-1-carboxamide] | 0.8 | – |
| CC(=O)Nc1nc(C)c(-c2cc3c(c(N4CCC(O)C4)n2)C(=O)N([C@@H](C)C2CC2)C3)s1 (stereo partly drawn) [Compound 47, N-(5-(2-((S)-1-cyclopropylethyl)-4-(3-hydroxypyrrolidin-1-yl)-3-oxo-2,3-dihydro-1H-pyrrolo[3,4-c]pyridin-6-yl)-4-methylthiazol-2-yl)acetamide] | 0.61 | – |
| CC(=O)Nc1nc(C)c(-c2cc3c(c(OC4CCOC4)n2)C(=O)N([C@@H](C)C2CC2)C3)s1 (stereo partly drawn) [Compound 51, N-(5-(2-((S)-1-cyclopropylethyl)-3-oxo-4-((tetrahydrofuran-3-yl)oxy)-2,3-dihydro-1H-pyrrolo[3,4-c]pyridin-6-yl)-4-methylthiazol-2-yl)acetamide] | 0.65 | – |
| CC(=O)Nc1nc(Cl)c(-c2cc3c(c(N4CCOCC4)n2)C(=O)N([C@@H](C)C2CC2)C3)s1 [Compound 53, (S)-N-(4-chloro-5-(2-(1-cyclopropylethyl)-4-morpholino-3-oxo-2,3-dihydro-1H-pyrrolo[3,4-c]pyridin-6-yl)thiazol-2-yl)acetamide] | 1.8 | – |
